The values below are quoted from earlier work in patent US20240366580A1, “NOVEL PHARMACEUTICAL COMPOSITIONS COMPRISING DABIGATRAN ETEXILATE OR SALT THEREOF” (Zim Laboratories Limited, priority 2021, published 2024).

Each structure is given as a SMILES string. Where a name gives a salt, the structure may show the parent alone.

The conditions of data set [1]: high permeability, low solubility.
The conditions of data set [2]: oral administration.

On to `CCCCCCOC(=O)NC(=N)c1ccc(NCc2nc3cc(C(=O)N(CCC(=O)OCC)c4ccccn4)ccc3n2C)cc1` [Dabigatran etexilate mesylate, β-Alanine, N-[[2-[[[4-[[[(hexyloxy)carbonyl]amino]iminomethyl]phenyl]amino]methyl]-1-methyl-1H-benzimidazol-5-yl]carbonyl]-N-2-pyridinyl-,ethyl ester, methanesulfonate], for which, in data set [1], the BCS class entry is recorded as “Class II”. In addition, the solubility in ethanol entry (ethanol) is “slightly soluble”. In addition, the solubility in isopropanol entry (isopropanol) is reported as “sparingly soluble”. Besides, the solubility in methanol result (methanol) is on record as “freely soluble”. Further, the absolute bioavailability in data set [2] is listed as 3-7%.
